Values quoted from earlier work as cited in EP0604852A1, “2,4-Substituted 5-(N-substituted-sulfamoyl) benzoylguanidines, as antiarrhythmic agents, inhibitors of the proliferation of cells and inhibitors of sodium-hydrogen exchange” (HOECHST AKTIENGESELLSCHAFT, priority 1992, dated 1994).

Tested on: Rattenherzen
Details: isolated rat hearts; Eur. Heart J. 9 (Suppl.): 167 (1988)

| Compound | künstlich ausgelöstes Kammerflimmern |
| --- | --- |
| N=C(N)NC(=O)c1nc(Cl)c(N)nc1N [Amilorid] | völlig unterdrückt |
| CCN(c1nc(N)c(C(=O)NC(=N)N)nc1Cl)C(C)C [Ethylisopropylamilorid] | Noch potenter als Amilorid |
